The conditions of experiment [1]: data from European Medicines Agency; tocilizumab from reference 80; cited from earlier work.
The conditions of experiment [2]: data from European Medicines Agency; read-out: KD (×10^−12); cited from earlier work.
Experiment [3] concerns lung explants from a patient with IPF. Kind of experiment: IPF patient lung explant culture, gene expression and secreted proteins. The experiment is classed as cell-based, human. The following applies: 10 days; nintedanib 0.1 μM, Alk5i 10 μM, Ereg Ab 2.5 μg/ml. The procedure: FIGS. 13A-13I show epiregulin inhibition reduces mouse and human lung fibrosis. (FIGS. 13A-13E) As diagramed in (FIG. 13A), 10 days after intratracheal bleomycin mice began treatment with epiregulin antibody for two weeks prior to euthanasia. Lungs were analyzed for histology (FIG. 13B), modified Ashcroft score (FIG. 13C), hydroxyproline (FIG. 13D) and epiregulin gene expression (FIG. 13E), n=6 (PBS), 11 (BLM), and 7 (Ereg Ab). Histology images in (FIG. 13B) are 10× magnification with 200 μm scale bars and IHC images are 40× magnification with 40 μm scale bars. […] The same tissue was cut into cubes and cultured for 10 days in the presence of the multikinase inhibitor nintedanib 0.1 μM (Nin), the Alk5 inhibitor A-1544033 (IN-1130) 10 μM (Alk5i), epiregulin antibody 2.5 μg/ml (Ereg Ab) or non-treated vehicle control (NT). (FIGS. 13G-13I) Relative expression of indicated genes, n=4 per group. (FIG. 13I) Protein secretion of indicated genes measured by ELISA, n=8 per group. ELISA samples with poor signal and qPCR outliers identified by Grubbs's test with alpha-0.05 were excluded. Data are means±SD (ns, not significant. * P<0.05, ** P<0.01, **** P<0.0001) analyzed with one-way analysis of variance (ANOVA) with Tukey multiple-comparisons test (FIGS. 13C-13E) and Dunnett's multiple-comparisons test (FIGS. 13G-13I).
Pathologic assessment confirmed the diagnosis of early IPF, as evidenced by the presence of fibroblastic foci and hyperplasia of alveolar type II epithelial cells as shown in FIG. 13F. Lung tissue was plated in 24 well plates and cultured for 10 days with media changes every two days. The impact of epiregulin antibody compared to the multikinase inhibitor nintedanib and a transforming growth factor beta type I receptor TGF-βRI/Alk5 small molecule inhibitor was assessed by measuring disease relevant endpoints in gene expression and protein production. At the gene level, reduction in epiregulin expression was observed which was similar to that seen in mouse lung by both epiregulin and TGF-βRI inhibition (FIG. 13G, left panel). […] ECM-remodeling and inflammation. […]
For lung explants, human IPF lung (person) was obtained from the National Disease Research Interchange (NDRI), kept cold, and received <24 hours after cross-clamp. […] After 10 days, culture supernatants were collected, pre-cleared at 4000× g (4° C. 10 mins), transferred to a clean 96 well polypropylene plate and stored at −80° C., until protein endpoints measured. Measured secreted proteins include: human MCP-1 V-Plex (MesoScale Discovery, K151NND-1), human TIMP-1 (MesoScale Discovery, K151JFC-1) and human pro-collagen 1α1 DuoSet Elisa (R&D systems, DY6220-05). All proteins were assayed and analyzed in accordance with their respective assay product datasheets. […]

The values below come from US20250154238A1, “METHODS AND COMPOSITIONS FOR TREATING AND PREVENTING FIBROSIS” (YALE UNIVERSITY, priority 2022, published 2025).

As for “Rizankizumab: FDA-approved monoclonal antibody medication”, in experiment [1], the IC50 (usually the concentration that inhibits the measured activity by half) is 24 pM. The Kd (in general, the concentration at which binding is half-saturated) in experiment [2] is 29 pM.
For the molecule Adalimumab, the 50% inhibitory concentration (IC50) in experiment [1] was 100 to 1000 pM. Further, the Kd in experiment [2] was 58 to 87 pM.
In the case of `COC(=O)c1ccc2c(c1)NC(=O)/C2=C(\Nc1ccc(N(C)C(=O)CN2CCN(C)CC2)cc1)c1ccccc1` [nintedanib], in experiment [3], the “pro-COL1A1 protein level, IPF lung explant” value was “significant reduction”.
As for `Cc1cccc(-c2[nH]c(Cc3cccc(C(N)=O)c3)nc2-c2ccc3nccnc3c2)n1` [TGF-βRI/Alk5 small molecule inhibitor], in experiment [3], the “COL1A1 gene expression, IPF lung explant” value was “significantly reduced expression”; the “epiregulin gene expression, IPF lung explant” value is on record as “reduction”; the “pro-COL1A1 protein level, IPF lung explant” value is on record as “significant reduction”.
Turning to “Tocilizumab: FDA-approved monoclonal antibody medication”, the 50% inhibitory concentration (IC50) in experiment [1] was 90 pM. In addition, the Kd in experiment [2] was 2500 pM.
